# Data as given in US20050153989A1, “Pyrrolopyrimidine derivatives and analogs and their use in the treatment and prevention of diseases” (Ambit Biosciences Corporation, priority 2004, published 2005).
# Target: T1, EGFR (Homo sapiens, UniProt P00533)
# Assay: EGFR autophosphorylation (tyrosine 1173) inhibition assay in lung cancer cell line A459
# Assay type: cell-based
# Parameters: 3.6×10^5 A549 cells/well in a 24-well culture plate; endogenous in cells
# Settings: EGF-induced phosphorylation of tyrosine 1173
# Experimental: (§1) Cells were stimulated by the addition of 5 ng/ml of EGF for five minutes. Cells were then washed with cold phosphate buffered saline (PBS), and incubated for 30 minutes at 4° C. in lysis buffer. […] Total EGFR levels were also measured in the same manner to control for protein level differences.
# T1 sequence (P00533 25-1210): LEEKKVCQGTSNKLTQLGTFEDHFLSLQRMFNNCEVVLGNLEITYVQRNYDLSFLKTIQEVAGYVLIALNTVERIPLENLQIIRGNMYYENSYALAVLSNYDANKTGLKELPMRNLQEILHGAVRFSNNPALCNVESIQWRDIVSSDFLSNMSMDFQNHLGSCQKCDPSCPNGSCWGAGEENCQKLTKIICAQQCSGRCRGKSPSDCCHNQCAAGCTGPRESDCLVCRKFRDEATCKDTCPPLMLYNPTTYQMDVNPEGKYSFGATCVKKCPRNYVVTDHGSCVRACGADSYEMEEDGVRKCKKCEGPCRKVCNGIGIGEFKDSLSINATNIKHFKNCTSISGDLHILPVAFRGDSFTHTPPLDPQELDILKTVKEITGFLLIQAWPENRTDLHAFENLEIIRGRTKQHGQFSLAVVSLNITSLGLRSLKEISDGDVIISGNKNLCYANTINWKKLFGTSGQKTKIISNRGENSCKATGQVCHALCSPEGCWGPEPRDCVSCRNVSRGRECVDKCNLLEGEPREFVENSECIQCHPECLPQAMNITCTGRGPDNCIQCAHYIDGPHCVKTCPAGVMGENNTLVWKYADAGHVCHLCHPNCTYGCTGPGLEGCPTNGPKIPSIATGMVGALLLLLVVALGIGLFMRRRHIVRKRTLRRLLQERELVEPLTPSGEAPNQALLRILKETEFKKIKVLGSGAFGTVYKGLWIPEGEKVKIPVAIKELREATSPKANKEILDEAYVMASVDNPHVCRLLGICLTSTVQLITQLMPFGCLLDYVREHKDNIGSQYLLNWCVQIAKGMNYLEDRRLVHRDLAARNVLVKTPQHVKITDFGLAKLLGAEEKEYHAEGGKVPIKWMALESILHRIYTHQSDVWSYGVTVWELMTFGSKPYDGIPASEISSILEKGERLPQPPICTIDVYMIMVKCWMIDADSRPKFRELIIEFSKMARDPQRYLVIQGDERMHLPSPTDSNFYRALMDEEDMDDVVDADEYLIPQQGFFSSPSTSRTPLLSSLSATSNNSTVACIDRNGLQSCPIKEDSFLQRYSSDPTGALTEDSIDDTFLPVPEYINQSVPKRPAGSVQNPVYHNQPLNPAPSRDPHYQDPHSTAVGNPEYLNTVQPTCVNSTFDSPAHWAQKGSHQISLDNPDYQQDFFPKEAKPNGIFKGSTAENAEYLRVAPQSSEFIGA
row,IC50 [nM],Compound
1,1000 to 10000,C[C@H](Nc1ncnc2c1[nH]c1ccccc12)c1ccccc1 [Compound C2]
2,< 100,COc1ccc(-c2cc3c(N[C@@H](C)c4ccccc4)ncnc3n2C(C)C)cc1 [Compound D10]

# Target: T1, EGFR
# Assay: Binding constant (Kd) measurement, T7 phage-displayed kinase competition binding, wildtype EGFR
# Parameters: made in house
# Settings: read-out: Kd for EGFR (DKIN) Binding
# Excerpt: Methods for measuring binding affinities for interactions between small molecules and kinases including FLT3, c-KIT, ABL(T334I) [a.k.a. […] The components of the assays include human kinases expressed as fusions to T7 bacteriophage particles and immobilized ligands that bind to the ATP site of the kinases. […] If the test compound binds the kinase it competes with the immobilized ligand and prevents binding to the solid support. […] The results are read out by quantitating the amount of fusion protein bound to the solid support, which is accomplished by either traditional phage plaque assays or by quantitative PCR (qPCR) using the phage genome as a template.
# The term “ND” represents non-determined values.
# To measure the Kd values, the T7 phage displaying human EGFR were incubated with an […] affinity matrix in the presence of various concentrations of a soluble (non-immobilized) compounds provided herein, as described in detail herein.
row,Compound,Kd [nM]
1,Fc1ccc(Nc2ncnc3c2[nH]c2ccccc23)cc1Cl [Compound C14],100 to 1000
2,Clc1ccc(Nc2ncnc3[nH]cnc23)cc1Cl [Compound G3],1000 to 10000
3,O=C(O)c1cccc(Nc2ncnc3[nH]cnc23)c1 [Compound G6],> 10000
4,Clc1cccc(Nc2ncnc3[nH]cnc23)c1 [Compound G12],> 10000
5,COc1cccc(CNc2ncnc3nc[nH]c23)c1 [Compound G15],> 10000
6,COc1ccc(-c2nc3c(NCc4cccc(C)c4)ncnc3[nH]2)cc1 [Compound I4],100 to 1000
7,COc1ccc(-c2cc3c(Nc4cccc(C(F)(F)F)c4)ncnc3[nH]2)cc1 [Compound I5],< 100
8,COc1cccc(CNc2ncnc3[nH]c(-c4ccc(O)cc4)cc23)c1 [Compound I19],100 to 1000
9,COc1ccc(Cn2c(-c3ccc(OC)cc3)cc3c(Nc4cc(C)cc(C)c4)ncnc32)cc1 [Compound K6],1000 to 10000
10,COc1ccc(Cn2c(-c3ccc(OC)cc3)cc3c(Nc4cccc(O)c4)ncnc32)cc1 [Compound K7],1000 to 10000
11,COc1ccc(Cn2c(-c3ccc(OC)cc3)cc3c(Nc4cccc(F)c4)ncnc32)cc1 [Compound K8],1000 to 10000
12,COc1ccc(Cn2c(-c3ccc(OC)cc3)cc3c(NCc4cccc(Cl)c4)ncnc32)cc1 [Compound M20],1000 to 10000
13,Cn1c(-c2ccc(O)cc2)cc2c(Nc3cccc(Br)c3)ncnc21 [Compound Q7],1000 to 10000
14,COc1ccc(-c2cc3c(Nc4cc(Cl)cc(Cl)c4)ncnc3[nH]2)cc1 [Compound S2],100 to 1000
15,COc1ccc(-c2cc3c(Nc4cccc(C(=O)O)c4)ncnc3[nH]2)cc1 [Compound S3],< 100
16,COC(=O)c1cccc(Nc2ncnc3[nH]c(-c4ccc(OC)cc4)cc23)c1 [Compound S4],< 100

row,Compound,Kd [nM]
1,COc1ccc(-c2cc3c(Nc4ccc(Cl)c(C(F)(F)F)c4)ncnc3[nH]2)cc1 [Compound S8],< 100
2,COc1ccc(-c2cc3c(Nc4cccc(C)c4)ncnc3[nH]2)cc1 [Compound S10],< 100
3,COc1cccc(-c2cc3c(Nc4cc(C)cc(C)c4)ncnc3[nH]2)c1 [Compound S13],< 100
4,COC(=O)c1cccc(Nc2ncnc3[nH]c(-c4cccc(OC)c4)cc23)c1 [Compound S15],> 10000
5,COc1cccc(-c2cc3c(Nc4ccc(Cl)c(Cl)c4)ncnc3[nH]2)c1 [Compound S19],< 100
6,COc1cccc(Nc2ncnc3[nH]c(-c4cccc(OC)c4)cc23)c1 [Compound S21],< 100
7,Cc1cc(C)cc(Nc2ncnc3[nH]c(-c4ccc(O)cc4)cc23)c1 [Compound S30],< 100
8,O=C(O)c1cccc(Nc2ncnc3[nH]c(-c4ccc(O)cc4)cc23)c1 [Compound S31],1000 to 10000
9,COC(=O)c1cccc(Nc2ncnc3[nH]c(-c4ccc(O)cc4)cc23)c1 [Compound S32],100 to 1000
10,Oc1ccc(-c2cc3c(Nc4cccc(O)c4)ncnc3[nH]2)cc1 [Compound S33],< 100
11,Oc1ccc(-c2cc3c(Nc4cccc(F)c4)ncnc3[nH]2)cc1 [Compound S35],< 100
12,COc1cccc(Nc2ncnc3[nH]c(-c4ccc(O)cc4)cc23)c1 [Compound S36],< 100
13,Oc1ccc(-c2cc3c(Nc4ccc(F)cc4)ncnc3[nH]2)cc1 [Compound S37],< 100
14,Clc1cc(Cl)cc(Nc2ncnc3[nH]c(-c4ccc(Br)cc4)cc23)c1 [Compound S38],1000 to 10000
15,Cc1cc(C)cc(Nc2ncnc3[nH]c(-c4ccc(Br)cc4)cc23)c1 [Compound S39],100 to 1000
16,COc1cccc(Nc2ncnc3[nH]c(-c4ccc(Br)cc4)cc23)c1 [Compound S42],100 to 1000

# The next lines start with the values.
row,Kd [nM],Compound
1,< 100,C[C@H](Nc1ncnc2c1[nH]c1ccccc12)c1ccccc1 [Compound C2]
2,> 10000,COc1ccc(-c2cc3c(N[C@@H](C)c4ccccc4)ncnc3n2C)cc1 [Compound D9]
3,< 100,COc1ccc(-c2cc3c(N[C@@H](C)c4ccccc4)ncnc3n2C(C)C)cc1 [Compound D10]
4,< 100,"C[C@@H](Nc1ncnc2oc(-c3ccccc3)c(-c3ccccc3)c12)c1ccccc1 [Compound H1, (5,6-Diphenyl-furo[2,3-d]pyrimidin-4-yl)-(1-phenyl-ethyl)-amine]"
5,< 100,CC(Nc1ncnc2oc(-c3ccccc3)c(-c3ccccc3)c12)c1ccccc1 (centres unmarked) [Compound H3]
6,100 to 1000,COC(=O)C(Nc1ncnc2[nH]c(-c3ccc(OC)cc3)cc12)c1ccccc1 (centres unmarked) [Compound I7]
7,100 to 1000,COc1ccc(-c2cc3c(NCCc4ccccc4)ncnc3[nH]2)cc1 [Compound I8]
8,1000 to 10000,C[C@H](Nc1ncnc2[nH]c(-c3ccc(O)cc3)cc12)c1ccccc1 [Compound I9]
9,< 100,COc1cccc(-c2cc3c(NCc4cccc(Cl)c4)ncnc3[nH]2)c1 [Compound I11]
10,100 to 1000,COc1cccc(-c2cc3c(NCc4cccc(C)c4)ncnc3[nH]2)c1 [Compound I12]
11,< 100,COc1cccc(-c2cc3c(NCc4ccccc4)ncnc3[nH]2)c1 [Compound I14]
12,< 100,COc1cccc(-c2cc3c(NCc4ccc(Cl)cc4)ncnc3[nH]2)c1 [Compound I16]
13,1000 to 10000,COc1ccc(C(C)Nc2ncnc3[nH]c(-c4cccc(OC)c4)cc23)cc1 (centres unmarked) [Compound I17]
14,< 100,CC(Nc1ncnc2[nH]c(-c3ccc(O)cc3)cc12)c1ccccc1 (centres unmarked) [Compound I18]
15,< 100,Cc1cccc(CNc2ncnc3[nH]c(-c4ccc(O)cc4)cc23)c1 [Compound I20]
16,< 100,Oc1ccc(-c2cc3c(NCc4ccccc4)ncnc3[nH]2)cc1 [Compound I21]
17,< 100,Oc1ccc(-c2cc3c(NCCc4ccccc4)ncnc3[nH]2)cc1 [Compound I22]
18,1000 to 10000,COc1ccc(C(C)Nc2ncnc3[nH]c(-c4ccc(O)cc4)cc23)cc1 (centres unmarked) [Compound I23]
19,< 100,C[C@H](Nc1ncnc2[nH]c(-c3ccc(Br)cc3)cc12)c1ccccc1 [Compound I24]
20,< 100,COc1ccc(-c2cc3c(N[C@H](C)c4ccccc4)ncnc3[nH]2)cc1 [Compound M21]
21,< 100,COc1ccc(-c2cc3c(N[C@H](C)c4ccccc4)nc(N[C@@H](C)c4ccccc4)nc3[nH]2)cc1 [Compound M22]
22,100 to 1000,COc1ccc(-c2cc3c(NC(C)c4ccccc4)ncnc3[nH]2)cc1 (centres unmarked) [Compound M24]
23,< 100,COc1cccc(-c2cc3c(Nc4cccc(O)c4)ncnc3[nH]2)c1 [Compound S16]
24,< 100,COc1cccc(-c2cc3c(Nc4cccc(F)c4)ncnc3[nH]2)c1 [Compound S22]
25,< 100,COc1cccc(-c2cc3c(Nc4ccc(Cl)cc4)ncnc3[nH]2)c1 [Compound S23]
26,< 100,COc1cccc(-c2cc3c(Nc4ccc(F)cc4)ncnc3[nH]2)c1 [Compound S24]
27,< 100,COc1cccc(-c2cc3c(Nc4ccccc4)ncnc3[nH]2)c1 [Compound S27]
28,< 100,COc1cccc(-c2cc3c(Nc4ccc(C)cc4)ncnc3[nH]2)c1 [Compound S28]

# Target: T1, EGFR
# Assay: EGFR autophosphorylation (tyrosine 1173) inhibition assay in A431 cells
# Assay type: cell-based
# Parameters: 4×10^4 A431 cells/well in a 96-well culture plate; endogenous in cells; host or cells: A431
# Settings: Epidermoid Carcinoma Cell Line A431; EGF-induced phosphorylation of tyrosine 1173
# Experimental: as §1
row,Compound,IC50 [nM]
1,COc1ccc(-c2cc3c(Nc4cccc(C)c4)ncnc3[nH]2)cc1 [Compound S10],< 100
2,Cc1cc(C)cc(Nc2ncnc3[nH]c(-c4ccc(Br)cc4)cc23)c1 [Compound S39],100 to 1000

# The remaining lines, values ahead:
row,IC50 [nM],Compound
1,100 to 1000,C[C@H](Nc1ncnc2c1[nH]c1ccccc12)c1ccccc1 [Compound C2]
2,100 to 1000,COc1ccc(-c2cc3c(N[C@@H](C)c4ccccc4)ncnc3n2C(C)C)cc1 [Compound D10]
3,100 to 1000,"C[C@@H](Nc1ncnc2oc(-c3ccccc3)c(-c3ccccc3)c12)c1ccccc1 [Compound H1, (5,6-Diphenyl-furo[2,3-d]pyrimidin-4-yl)-(1-phenyl-ethyl)-amine]"
4,100 to 1000,CC(Nc1ncnc2oc(-c3ccccc3)c(-c3ccccc3)c12)c1ccccc1 (centres unmarked) [Compound H3]
